Reference: ChEMBL document CHEMBL1121827, “Showdomycin analogues: synthesis and antitumor evaluation” (J Med Chem, 1981)

Key:
[1] = In vivo antitumor activity expressed as lethal dose with daily administration schedule against P388 murine leukemia cells; format: ADME, organism-based; settings: mouse
L1210 [2] = test: Cytotoxicity inhibition against cultured L1210 cells at 200 uM; format: functional; settings: Mus musculus
L1210 [3] = test: Cytotoxicity inhibition against cultured L1210 cells at 400 uM; format: functional; settings: Mus musculus

Compound	LD50 [1] [mg/kg]	inhibition at 200 µM (L1210 [2]) [%]	inhibition at 400 µM (L1210 [3]) [%]
CC(=O)OC[C@H]1O[C@@H](N2C(=O)C=CC2=O)[C@H](OC(C)=O)[C@@H]1OC(C)=O	10	–	–
O=C1C=CC(=O)N1C1O[C@H](CO)[C@@H](O)[C@H]1O (stereo partly specified)	35	–	–
O=C1C=C(Cl)C(=O)N1C1O[C@H](CO)[C@@H](O)[C@H]1O (stereo partly specified)	18	–	–
CC1=CC(=O)N(C2O[C@H](CO)[C@@H](O)[C@H]2O)C1=O (stereo partly specified)	100	95	85
